# How the values were obtained:
# [1] = molecular target: 5-hydroxytryptamine receptor 2B (Homo sapiens, UniProt P41595); experiment: Selectivity interaction (Safety Panel 44tm (Eurofins)) EUB0000162b HTR2B; conditions: at 10 µM
# [2] = molecular target: T1, Eukaryotic elongation factor 2 kinase (Homo sapiens) (UniProt O00418); experiment: Selectivity interaction (ProQinase) EUB0000171b EEF2K
# T1 sequence (whole entry): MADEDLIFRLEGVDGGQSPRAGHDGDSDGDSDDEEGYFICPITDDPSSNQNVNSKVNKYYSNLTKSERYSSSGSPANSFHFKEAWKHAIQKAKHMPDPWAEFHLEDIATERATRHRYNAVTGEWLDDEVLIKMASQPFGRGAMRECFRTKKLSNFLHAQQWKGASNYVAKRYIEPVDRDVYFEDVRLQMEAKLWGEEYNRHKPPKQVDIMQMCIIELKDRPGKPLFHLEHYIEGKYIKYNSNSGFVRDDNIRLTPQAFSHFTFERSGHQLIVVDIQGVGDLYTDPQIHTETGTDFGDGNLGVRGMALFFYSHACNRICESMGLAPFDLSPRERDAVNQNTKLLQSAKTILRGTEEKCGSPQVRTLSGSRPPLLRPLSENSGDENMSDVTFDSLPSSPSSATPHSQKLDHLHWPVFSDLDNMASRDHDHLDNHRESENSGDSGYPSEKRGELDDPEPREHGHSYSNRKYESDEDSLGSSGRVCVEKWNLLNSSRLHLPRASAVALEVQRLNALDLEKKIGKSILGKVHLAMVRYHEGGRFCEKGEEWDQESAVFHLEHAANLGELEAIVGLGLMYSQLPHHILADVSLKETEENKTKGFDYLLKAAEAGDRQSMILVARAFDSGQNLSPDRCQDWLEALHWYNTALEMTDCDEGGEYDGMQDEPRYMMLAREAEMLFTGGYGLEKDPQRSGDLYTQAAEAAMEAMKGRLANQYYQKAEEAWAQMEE
# [3] = molecular target: T2, Serine/threonine-protein kinase Nek3 (Homo sapiens) (UniProt P51956); experiment: Selectivity interaction (Kinase panel (KiNativ target engagement assay in Jurkat cells)) EUB0001635a NEK3; format: cell-based; conditions: at 1 µM
# T2 sequence (whole entry): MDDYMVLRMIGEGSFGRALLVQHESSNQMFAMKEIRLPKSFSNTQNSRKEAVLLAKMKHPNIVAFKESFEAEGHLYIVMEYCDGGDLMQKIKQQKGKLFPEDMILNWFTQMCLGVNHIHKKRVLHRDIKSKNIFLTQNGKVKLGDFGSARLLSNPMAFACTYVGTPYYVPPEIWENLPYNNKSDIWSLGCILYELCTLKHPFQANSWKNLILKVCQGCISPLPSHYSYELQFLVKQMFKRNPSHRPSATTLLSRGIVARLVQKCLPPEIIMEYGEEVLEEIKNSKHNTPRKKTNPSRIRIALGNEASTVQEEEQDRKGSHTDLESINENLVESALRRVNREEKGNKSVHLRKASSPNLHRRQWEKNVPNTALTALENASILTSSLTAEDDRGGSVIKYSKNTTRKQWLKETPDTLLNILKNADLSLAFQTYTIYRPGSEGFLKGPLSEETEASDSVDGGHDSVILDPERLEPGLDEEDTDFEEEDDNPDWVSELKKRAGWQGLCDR
# [4] = molecular target: Serine/threonine-protein kinase 26 (Homo sapiens, UniProt Q9P289); experiment: Selectivity interaction (KinomeScan (DiscoverX)) EUB0000666a STK26; conditions: at 10 µM
# Serine/threonine-protein kinase 26, sequence (Q9P289 2-416 limits assumed): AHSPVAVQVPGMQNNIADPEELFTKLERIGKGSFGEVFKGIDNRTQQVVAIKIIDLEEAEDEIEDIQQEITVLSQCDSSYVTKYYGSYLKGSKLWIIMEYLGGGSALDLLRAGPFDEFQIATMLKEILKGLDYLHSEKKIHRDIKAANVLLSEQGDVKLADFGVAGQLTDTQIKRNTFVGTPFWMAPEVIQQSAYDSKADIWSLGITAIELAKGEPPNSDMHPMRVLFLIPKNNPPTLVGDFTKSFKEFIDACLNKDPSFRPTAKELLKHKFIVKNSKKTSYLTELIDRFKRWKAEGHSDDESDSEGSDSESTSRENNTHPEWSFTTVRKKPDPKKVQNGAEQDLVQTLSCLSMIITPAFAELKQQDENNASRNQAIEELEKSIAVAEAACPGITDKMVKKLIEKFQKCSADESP
# [5] = molecular target: Mitogen-activated protein kinase kinase kinase 1 (Homo sapiens, UniProt Q13233); conditions: at 10 µM
# Mitogen-activated protein kinase kinase kinase 1, sequence (Q13233 whole entry): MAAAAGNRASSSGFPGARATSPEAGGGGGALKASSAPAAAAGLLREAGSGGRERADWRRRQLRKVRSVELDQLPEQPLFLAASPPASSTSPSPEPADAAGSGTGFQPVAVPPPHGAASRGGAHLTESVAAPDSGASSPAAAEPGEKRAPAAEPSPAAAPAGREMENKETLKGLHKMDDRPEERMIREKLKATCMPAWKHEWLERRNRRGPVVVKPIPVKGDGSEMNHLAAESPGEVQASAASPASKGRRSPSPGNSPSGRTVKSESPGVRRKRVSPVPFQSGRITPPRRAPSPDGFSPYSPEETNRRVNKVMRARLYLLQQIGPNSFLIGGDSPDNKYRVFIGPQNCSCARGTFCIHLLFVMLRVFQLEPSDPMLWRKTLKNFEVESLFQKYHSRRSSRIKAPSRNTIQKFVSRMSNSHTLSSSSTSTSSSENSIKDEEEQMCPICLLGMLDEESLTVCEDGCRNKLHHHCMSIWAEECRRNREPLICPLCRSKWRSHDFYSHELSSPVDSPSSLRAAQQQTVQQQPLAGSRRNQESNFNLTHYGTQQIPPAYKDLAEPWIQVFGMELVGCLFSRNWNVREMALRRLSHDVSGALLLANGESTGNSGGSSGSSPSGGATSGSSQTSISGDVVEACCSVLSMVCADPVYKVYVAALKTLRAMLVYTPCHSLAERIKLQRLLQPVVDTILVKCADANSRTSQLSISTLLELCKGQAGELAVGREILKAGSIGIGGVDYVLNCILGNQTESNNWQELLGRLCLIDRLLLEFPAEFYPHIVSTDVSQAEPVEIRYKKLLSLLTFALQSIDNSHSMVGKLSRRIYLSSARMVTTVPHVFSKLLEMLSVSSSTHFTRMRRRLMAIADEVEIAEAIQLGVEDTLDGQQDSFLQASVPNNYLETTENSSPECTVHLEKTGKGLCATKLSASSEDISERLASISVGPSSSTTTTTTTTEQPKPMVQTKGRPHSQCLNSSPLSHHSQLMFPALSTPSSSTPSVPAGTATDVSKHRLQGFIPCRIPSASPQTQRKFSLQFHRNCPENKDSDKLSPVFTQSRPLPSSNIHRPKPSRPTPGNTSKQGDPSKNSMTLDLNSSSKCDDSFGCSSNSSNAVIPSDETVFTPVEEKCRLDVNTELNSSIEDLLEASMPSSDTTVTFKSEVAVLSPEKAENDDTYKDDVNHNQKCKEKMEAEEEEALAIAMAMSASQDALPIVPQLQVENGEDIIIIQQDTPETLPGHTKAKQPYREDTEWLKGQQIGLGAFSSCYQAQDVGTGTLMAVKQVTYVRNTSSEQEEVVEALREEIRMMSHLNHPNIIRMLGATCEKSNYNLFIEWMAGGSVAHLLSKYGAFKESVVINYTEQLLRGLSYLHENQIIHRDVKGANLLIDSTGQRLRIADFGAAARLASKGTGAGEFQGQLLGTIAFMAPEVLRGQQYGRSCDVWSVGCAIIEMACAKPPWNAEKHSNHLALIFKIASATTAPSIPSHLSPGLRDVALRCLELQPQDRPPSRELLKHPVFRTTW
# [6] = molecular target: T3, Mitogen-activated protein kinase kinase kinase 7 (Homo sapiens) (UniProt O43318); conditions: at 10 µM
# T3 sequence (whole entry): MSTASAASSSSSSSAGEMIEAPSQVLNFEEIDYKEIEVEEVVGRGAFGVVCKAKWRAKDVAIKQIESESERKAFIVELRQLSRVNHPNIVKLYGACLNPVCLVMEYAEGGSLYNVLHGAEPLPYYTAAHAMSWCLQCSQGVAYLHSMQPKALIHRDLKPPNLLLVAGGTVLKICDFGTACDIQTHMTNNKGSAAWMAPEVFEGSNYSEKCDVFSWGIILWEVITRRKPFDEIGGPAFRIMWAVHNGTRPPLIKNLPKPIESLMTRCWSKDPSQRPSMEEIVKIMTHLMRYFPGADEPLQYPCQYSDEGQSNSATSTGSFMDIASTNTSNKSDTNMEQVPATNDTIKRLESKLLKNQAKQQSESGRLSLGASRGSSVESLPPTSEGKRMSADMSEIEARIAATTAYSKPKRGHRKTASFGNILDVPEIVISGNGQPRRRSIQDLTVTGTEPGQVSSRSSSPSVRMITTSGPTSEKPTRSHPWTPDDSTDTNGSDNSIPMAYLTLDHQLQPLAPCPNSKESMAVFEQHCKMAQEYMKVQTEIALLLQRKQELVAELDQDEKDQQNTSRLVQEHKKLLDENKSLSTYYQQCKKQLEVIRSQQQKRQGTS
# [7] = molecular target: Tyrosine-protein kinase SYK (Homo sapiens, UniProt P43405); experiment: Selectivity interaction (KinomeScan (DiscoverX)) EUB0000607a SYK; conditions: at 10 µM
# [8] = molecular target: Epithelial discoidin domain-containing receptor 1 (Homo sapiens) (UniProt Q08345); experiment: Selectivity interaction (KinomeScan (DiscoverX)) EUB0000045b DDR1
# Epithelial discoidin domain-containing receptor 1 (Homo sapiens), sequence (Q08345 whole entry, the tested form may be a part): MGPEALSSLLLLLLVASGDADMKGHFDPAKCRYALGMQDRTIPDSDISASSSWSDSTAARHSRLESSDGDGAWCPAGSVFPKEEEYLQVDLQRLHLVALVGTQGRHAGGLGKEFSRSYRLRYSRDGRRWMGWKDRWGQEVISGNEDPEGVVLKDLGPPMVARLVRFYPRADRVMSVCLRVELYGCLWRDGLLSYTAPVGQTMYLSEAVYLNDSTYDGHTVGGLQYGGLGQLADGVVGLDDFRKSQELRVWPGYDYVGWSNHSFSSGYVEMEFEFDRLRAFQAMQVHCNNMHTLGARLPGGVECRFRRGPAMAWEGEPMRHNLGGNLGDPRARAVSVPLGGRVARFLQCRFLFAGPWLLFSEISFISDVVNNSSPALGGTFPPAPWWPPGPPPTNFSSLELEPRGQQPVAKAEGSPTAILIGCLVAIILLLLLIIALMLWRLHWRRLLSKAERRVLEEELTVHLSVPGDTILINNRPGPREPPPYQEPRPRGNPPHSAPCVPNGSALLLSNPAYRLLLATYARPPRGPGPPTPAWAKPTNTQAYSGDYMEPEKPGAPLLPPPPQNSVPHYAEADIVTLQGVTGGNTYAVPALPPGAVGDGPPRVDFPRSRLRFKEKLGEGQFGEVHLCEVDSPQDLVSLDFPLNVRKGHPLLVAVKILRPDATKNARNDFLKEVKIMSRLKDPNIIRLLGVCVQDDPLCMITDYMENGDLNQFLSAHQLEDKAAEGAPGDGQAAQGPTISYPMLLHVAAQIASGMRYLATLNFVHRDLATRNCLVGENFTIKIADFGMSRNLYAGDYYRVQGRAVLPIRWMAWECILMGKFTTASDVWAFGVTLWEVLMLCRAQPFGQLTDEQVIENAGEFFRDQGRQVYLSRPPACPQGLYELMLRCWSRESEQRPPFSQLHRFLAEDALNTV
# [9] = molecular target: Eukaryotic translation initiation factor 2-alpha kinase 1 (Homo sapiens) (UniProt Q9BQI3); experiment: Selectivity interaction (KinomeScan (DiscoverX)) EUB0000045b EIF2AK1
# Eukaryotic translation initiation factor 2-alpha kinase 1 (Homo sapiens), sequence (Q9BQI3 whole entry): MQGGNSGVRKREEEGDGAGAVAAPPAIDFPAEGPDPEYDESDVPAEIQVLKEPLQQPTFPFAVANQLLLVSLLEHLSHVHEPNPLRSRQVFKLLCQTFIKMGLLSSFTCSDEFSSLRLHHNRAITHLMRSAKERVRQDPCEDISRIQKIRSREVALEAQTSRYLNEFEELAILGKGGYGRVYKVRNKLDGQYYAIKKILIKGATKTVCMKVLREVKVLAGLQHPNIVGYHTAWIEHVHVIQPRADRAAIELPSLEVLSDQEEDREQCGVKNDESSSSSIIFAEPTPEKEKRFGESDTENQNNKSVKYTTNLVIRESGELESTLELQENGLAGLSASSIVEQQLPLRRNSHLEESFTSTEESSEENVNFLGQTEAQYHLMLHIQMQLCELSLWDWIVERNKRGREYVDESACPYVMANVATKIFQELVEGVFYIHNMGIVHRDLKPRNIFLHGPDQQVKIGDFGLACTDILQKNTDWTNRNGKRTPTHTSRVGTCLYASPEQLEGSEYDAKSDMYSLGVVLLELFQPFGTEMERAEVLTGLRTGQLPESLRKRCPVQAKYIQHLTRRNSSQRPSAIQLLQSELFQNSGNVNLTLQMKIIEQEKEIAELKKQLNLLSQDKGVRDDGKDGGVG
# [10] = molecular target: AP2-associated protein kinase 1 (Homo sapiens, UniProt Q2M2I8); experiment: Selectivity interaction (Ambit KINOMEscan and KiNATiv profiling in Jurkat cells) EUB0000090b AAK1; format: cell-based; conditions: at 1 µM
# AP2-associated protein kinase 1, sequence (Q2M2I8 whole entry, looked up): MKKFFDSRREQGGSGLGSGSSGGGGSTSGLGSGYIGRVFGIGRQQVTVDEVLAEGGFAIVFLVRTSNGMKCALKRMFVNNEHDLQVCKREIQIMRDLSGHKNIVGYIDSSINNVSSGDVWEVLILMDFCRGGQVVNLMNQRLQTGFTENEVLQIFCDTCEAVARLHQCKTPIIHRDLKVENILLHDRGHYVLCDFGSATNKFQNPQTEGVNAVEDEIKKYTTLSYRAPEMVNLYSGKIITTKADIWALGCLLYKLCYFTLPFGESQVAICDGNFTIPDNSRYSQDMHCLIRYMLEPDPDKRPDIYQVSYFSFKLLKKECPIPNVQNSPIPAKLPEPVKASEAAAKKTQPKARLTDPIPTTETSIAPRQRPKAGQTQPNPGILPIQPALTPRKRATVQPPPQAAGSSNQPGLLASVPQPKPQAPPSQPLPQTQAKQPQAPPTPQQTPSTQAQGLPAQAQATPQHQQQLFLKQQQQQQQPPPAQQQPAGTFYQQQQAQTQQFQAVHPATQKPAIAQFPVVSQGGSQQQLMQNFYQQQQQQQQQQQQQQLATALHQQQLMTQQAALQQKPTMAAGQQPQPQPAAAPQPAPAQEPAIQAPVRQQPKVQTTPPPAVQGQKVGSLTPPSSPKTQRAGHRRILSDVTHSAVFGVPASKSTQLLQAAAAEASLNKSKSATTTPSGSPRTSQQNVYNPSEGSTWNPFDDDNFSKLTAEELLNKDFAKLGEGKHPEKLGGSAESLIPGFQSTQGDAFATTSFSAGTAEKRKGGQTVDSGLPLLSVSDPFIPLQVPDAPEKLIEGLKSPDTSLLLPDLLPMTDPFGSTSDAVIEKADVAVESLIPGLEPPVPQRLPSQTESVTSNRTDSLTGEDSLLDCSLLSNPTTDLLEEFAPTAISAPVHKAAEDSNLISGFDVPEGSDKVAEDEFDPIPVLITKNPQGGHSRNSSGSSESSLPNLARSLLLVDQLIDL
# [11] = molecular target: Serine/threonine-protein kinase 16 (Homo sapiens, UniProt O75716); experiment: Selectivity interaction (KinomeScan (DiscoverX)) EUB0001619a STK16; conditions: at 1 µM
# Serine/threonine-protein kinase 16, sequence (O75716 whole entry): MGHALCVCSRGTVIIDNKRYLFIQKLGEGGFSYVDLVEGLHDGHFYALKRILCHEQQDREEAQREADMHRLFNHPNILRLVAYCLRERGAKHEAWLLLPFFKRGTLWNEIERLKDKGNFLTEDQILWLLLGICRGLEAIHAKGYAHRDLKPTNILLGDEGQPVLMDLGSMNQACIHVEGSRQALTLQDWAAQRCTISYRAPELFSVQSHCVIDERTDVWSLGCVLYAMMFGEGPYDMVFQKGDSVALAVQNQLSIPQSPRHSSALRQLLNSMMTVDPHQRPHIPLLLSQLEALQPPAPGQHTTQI
smiles,measurement,setting,value
CN(C)C(=O)Cn1cc(-c2ccc(-c3cncc4ccccc34)cc2)cn1,% of control,[1],34%
C=CC(=O)Nc1cccc(C(=O)Nc2ccc(Nc3cc(-c4[nH]c(SC)nc4C)ccn3)cc2)c1,% of control,[2]; at 1 µM,91%
same,% of control,[2]; at 5 µM,92%
C=CC(=O)Nc1ccc(C(=O)Nc2[nH]nc3c2CN(C(=O)N[C@H](CN(C)C)c2ccccc2)C3(C)C)cc1,% of engagement,[3],4.4%
O=C(NOC[C@H](O)CO)c1ccc(F)c(F)c1Nc1ccc(I)cc1F,% of control,[4],77%
Cc1cc([C@@H](C)Nc2ccccc2C(=O)O)c2nc(N3CCOCC3)cc(=O)n2c1 [AZD-6482],% of control,[5],90%
same,% of control,[6],89%
CNC(=O)Nc1ccc(-c2nc(N3CC4CCC(C3)O4)c3cnn(C4CCC5(CC4)OCCO5)c3n2)cc1,% of control,[7],100%
C=CC(=O)Nc1cc(-n2c(=O)ccc3cnc4ccc(-c5ccc(NS(C)(=O)=O)cc5)cc4c32)ccc1C,% of control,[8]; at 1 µM,100%
same,% of control,[8]; at 10 µM,75%
same,% of control,[9]; at 1 µM,100%
same,% of control,[9]; at 10 µM,100%
CN(C)C/C=C/C(=O)Nc1ccc(C(=O)N2CCCC(Nc3ncc(Cl)c(-c4c[nH]c5ccccc45)n3)C2)cc1 (centres undefined),% of control,[10],89%
N#Cc1cccc(-c2c[nH]c3ncnc(N4CCOCC4)c23)c1,% of control,[11],33%
